Holding throughout (type): in vivo, mouse
Data set [1] deals with lung of SAMP8/SAMR1 mice with TAC. Kind of data set: MR imaging of lung in transverse aortic constriction (TAC) model. The conditions noted are these: 20 min post injection. The source says:
Combined Heart and Lung Fibrosis Model:
Left ventricular dysfunction with pulmonary hypertension was induced by left thoracotomy transverse aortic constriction surgery (TAC) in 6-month-old senescence-accelerated-prone/resistant mice (SAMP8/SAMR1), which is a well-established model of pressure overload-induced cardiac hypertrophy that can induce heart and lung fibrosis. The transverse aorta was encircled with 7-0 nylon suture and tied tightly around a pre-sterilized, blunt-end of a 27-gauge needle. After securing the knot, the needle was removed, and aortic flow resumed. Another two groups of SAMP8 and SAMR1 mice received sham surgery as control. 3-weeks post-surgery, mice were anesthetized with isoflurane (1.5%) and imaged at a 4.7 Tesla Bruker MRI scanner.
For combined heart and lung imaging, a series of baseline images (2D T1 weighted FLASH for heart and 3D-UTE for lung) were first acquired. 2D T1 weighted FLASH: repetition time/echo time=18.24/3.54 ms; flip angle, 50°; field of view, 36×36 mm^2; matrix size, 138×138 mm^2; slice thickness, 1 mm; acquisition time, 3 minutes 50 seconds. 3D-UTE: repetition time/echo time=4/0.01225 ms; flip angle, 16°; field of view, 32×32 mm^2; matrix size, 128×128 mm^2; slice thickness, 0.25 mm; acquisition time, 3 minutes 36 seconds. Then a bolus of Gd-9 complex was administered i.v. and imaging performed for a period of 40 min p.i. with the repetition acquisition of 2D T1 weighted FLASH and 3D-UTE sequences. Following the imaging session, animals were sacrificed and heart and lung tissue was subjected to histopathologic analysis.
For lung imaging analysis, RARE image, FLASH image pre-contrast and immediately post-contrast were used to define regions of interest (ROIs) in the lung that excluded vessels and airways. A total of 6 lung ROIs were defined on axial UTE images to obtain signal intensity (SI); ROIs in the dorsal muscle in each slice were also defined as reference; ROIs in the field of view without any tissue (air) were used to measure the variation in background signal. Then the lung-to muscle ratio (LMR) or contrast to noise ratio (CNR) was averaged from the 6 slices to calculate changes in LMR (ΔLMR) or CNR (ΔCNR) at each time point.

The next data set relates to liver of CDAHFD mice. Kind of data set: MR imaging of liver in non-alcoholic steatohepatitis (CDAHFD) model. Particulars: 20 min post injection. The source says: Non-Alcoholic Steatohepatitis Liver Fibrosis Model:
A total of 40 C57BL/6 mice were used and randomized to each study group. To induce NASH, 6-week old, male C57BL/6 mice (Charles River Labs, Wilmington, MA) were fed a choline deficient, high fat diet (CDAHFD) consisting of 60 kcal % fat and 0.1% methionine (A06071302; Research Diets, New Brunswick, NJ) by weight. No animals were excluded from the study.
Three groups of mice were studied:
Group A, mice were fed CDAHFD for 2 (n=6), 6 (n=6), 10 (n=6) weeks and imaged with probe Gd-9.
Group B, mice were fed CDAHFD for 10 weeks followed by normal chow for 1 (n=6) or 4 weeks (n=6) and imaged with probe Gd-9.
Group C, mice were fed normal chow for 2, 6, 10, 11 or 14 weeks (n=10) and imaged with probe Gd-9.
Animals were anesthetized with isoflurane (1-2%) and placed in a specially designed cradle with body temperature maintained at 37° C. The inhaled isoflurane level was adjusted to maintain a respiration rate of 60±5 breaths per minute. The tail vein was cannulated for intravenous (i.v.) delivery of the contrast agent while the animal was positioned in the scanner. Imaging was performed at 4.7 T using a small bore animal scanner with a custom-built volume coil. Mice were imaged with a dose of 100 μmol/kg from 30 mM stock solution of Gd or Mn complex.
Following the imaging session, animals were sacrificed (75 min p.i.) and liver tissue was subjected to histopathologic analysis.
For liver imaging analysis, a region of interest (ROI) was manually traced encompassing the liver parenchyma while avoiding major blood vessels. A second ROI was placed on the dorsal muscle visible in the same image slice to quantify the signal intensity in the muscle for comparison. Seven ROIs were placed in the field of view without any tissue (air) to measure the variation in background signal. More than 20 axial slices per mouse across the entire liver were analyzed in this fashion. […] Contrast to noise ratio (CNR) was calculated by measuring the difference in signal intensity (SI) between liver and muscle and normalizing to the standard deviation of the signal in the air, eq 21. ΔCNR was calculated by subtracting CNR measured prior to probe injection (CNRPre) from CNR measured after injection (CNRPost), eq 22.
Mice were fed with CDAHFD or standard chow for 2, 6, or 10 weeks; two additional groups of mice received CDAHFD for 10 weeks and then standard chow for 1 or 4 weeks (FIG. 70; 2 wk, 6 wk, and 10 wk bars correspond to CDAHFD; 1 wk and 4 wk bars correspond to standard chow; “MRI” indicates MRI with Gd-9).

A further data set concerns IRI kidney cortex. The experiment in a line: MR imaging of kidney ischemia-reperfusion (IRI) model. The conditions noted are these: for Change in longitudinal relaxation time (ΔT1): 4 h post injection, n = 11. On the procedure: Kidney Ischemia-Reperfusion (IRI) Model:
Male C57BL/6 mice (10-12 weeks old; Charles River Laboratories) were anesthetized with ketamine/xylazine (100/10 mg/kg; IP). Animals were then placed prone while maintaining rectal temperature strictly at 37° C. with a feedback-regulated heating pad. The skin incision was performed on the left lower flank while adhering to strict aseptic procedures. After accessing the retroperitoneal space, the left kidney, and the left renal artery-vein was identified. Ischemia was induced by applying a micro serrefine clip onto the renal artery and vein. Successful ischemia was visually confirmed by a gradual uniform darkening of the kidney. The clamp was removed 26 minutes later, and a rapid change verified successful reperfusion in kidney color from a dark maroon to a healthy dark pink. The skin was closed using surgical staples, and animals were returned to their home cages. Analgesia was provided by buprenorphine (0.1 mg/kg, SC, bid for three days starting 1 hour before IRI surgery).
Animals were imaged 14 days after IRI and were euthanized after imaging. The right and left kidneys were removed, cortex and medulla regions of each kidney were separated for further analysis.
For kidney imaging, a series of three-dimensional inversion-recovery FLASH images were acquired at baseline and 4 hours after Mn-16 administration with inversion recovery times of 7, 307, 557, 707, 857, 1507, 3007, 5007, and 7007 msec. (TR/TE/FA=5 see/72 msec, field of view (FOV) […], dimension 128×128, slice thickness 0.7 mm).
For kidney imaging analysis, longitudinal relaxation time (T1) was obtained by fitting inversion recovery data to a T1 relaxation equation (M0×(1−2 exp(−TI/T1))) and change in T1 (ΔT1) was calculated by subtracting T1 measured prior to probe injection (T1pre) from T1 measured after injection (T1post), eq 23.

“And” between values parts separate entries of the source, which are not always exact repeats. Equal entries are not always repeated.

In the case of `NN1CCN(C(=O)CCC(C(=O)[O-])N2CCN(CC(=O)[O-])CCN(CC(=O)[O-])CCN(C(CCC(=O)N3CCN(N)CC3)C(=O)[O-])CC2)CC1.[Gd+3]` (stereo not drawn) [Gd-9, cis-1,4-Gd-(CHyd)2], the ΔCNR of lung in data set [1] (SAMP1-TAC) was 1.2 ± 0.3; in data set [1] (SAMP8-Sham), 0.8 ± 0.5; in data set [1] (SAMP8-TAC) it was 3.1 ± 0.9; in data set [1] (Sham) it was 0.4 ± 0.2. Besides, the “ΔCNR of liver (row head ACNR)” value in the data set on liver of CDAHFD mice (2 wk CDAHFD) is 1.3±0.4 and 1.3 ± 0.3; in the data set with liver of CDAHFD mice (6 wk CDAHFD), 2.1 ± 0.4; in the data set on liver of CDAHFD mice (10 wk CDAHFD then 1 wk Withdrawal) it was 0.9±0.3; with liver of CDAHFD mice (10 wk CDAHFD then 4 wk Withdrawal) it was 0.3±0.2; with liver of CDAHFD mice (10 wk CDAHFD), 2.5±0.5; in the data set on liver of CDAHFD mice (Control (standard chow)) it was 0.1±0.4.

Turning to `NOC(CCC(=O)NCCCN1CCN(CC(=O)[O-])Cc2cccc(n2)CN(CC(=O)[O-])CC1)C(=O)O.[Mn+2]` (centres unmarked) [Mn-16], in the data set on IRI kidney cortex (IRI kidney cortex), the Mn concentration is reported as 90 nmol/g and the “Change in longitudinal relaxation time (ΔT1)” value is -395 ms. In the data set with IRI kidney cortex (contralateral cortex), the Mn concentration worked out at 60 nmol/g and the “Change in longitudinal relaxation time (ΔT1)” value was -230 ms.

The values are drawn from patent US20240285808A1, “MOLECULAR PROBES FOR IN VIVO DETECTION OF ALDEHYDES” (The General Hospital Corporation, priority 2021, published 2024).
